We go through 1 compound from EP0486809A2, “Use of suramin against TNF-related diseases” (priority 1990, dated 1992).

The target of data set [1] is T1, human TNFa (Homo sapiens, UniProt P01375). Kind of data set: Inhibition by suramin of the cytotoxic activity of TNFa on actinomycin D-treated LM cells (MTT). It counts as cell-based. As to conditions: mouse LM cells treated with actinomycin D, measured the day after; Figure 5. The method, then:
In the experiment depicted in Figure 5 different concentrations of human TNFa (Esquire) were incubated, in the absence or presence of different doses of suramin, with mouse LM cells treated with actinomycin D. Treatment with actinomycin D is known to render LM cells more sensitive to the cytotoxic activity of TNFa (Ruff, M.R. and Gifford, G.E., J. lmmunol. 125: 1671 (1980)). The cytotoxic activity of human TNFa was measured the day after.
Inhibition by suramin of the cytotoxic activity of TNF a on actinomycin D - treated LM cells.
The experimental design is similar to that for the assay on untreated LM cells.
The differences are as follows. • 1) 100 µl of a cell-suspension containing 3 x 10^5 cells/ml are added to each well of microtiter plates. • 2) Before setting up the TNFa-cytotoxicity assay, the cells are pretreated for 4 hours at 37 °C with complete MEM (100 µl/well) containing 2 µg/ml actinomycin D (Fluka). • 3) The cytotoxic activity of human TNF a is measured after an incubation period of 24 hours at 37 ° C.

The target in data set [2] is T1, human TNFa. Briefly: Inhibition by suramin of the binding of iodinated human TNFa to K562 cells. Further details: purchased New England Nuclear (NEN), Wilmington, DE. The note with it: for IC50: Figure 1, read-out: Inhibitory concentrations 50 (IC50). How it is done:
In the experiment depicted in Figure 1 suramin was mixed, at the indicated doses, with 2.5 x 10^-11M, 10^-10M, or 4 x 10^-10M iodinated human TNFa - (New England Nuclear, NEN, Wilmington, DE). The mixtures were then added immediately to K562 cells. The residual binding of TNF a was measured and compared to the binding to K562 cells in the absence or presence of a 100-fold higher dose of "cold" unlabeled human TNFa (Esquire Chemie AG, Zuerich, Switzerland). […] Higher doses of suramin are required to inhibit the binding of higher doses of iodinated TNFa. […]
1) Inhibition by suramin of the binding of iodinated human TNF a to K562 cells.
lodinated human TNFa (NEN, specific activity = 30 - 70 µCi/µg protein) is diluted so to have concentrations of 1.6 x 10-^9 M, 4 x 10^-10M and 10^-10M in RPMI 1640 medium (Flow, Opera, Italy) supplemented with 2% foetal calf serum (FCS, PBI, Milan, Italy) and 14 mM Hepes (Flow). This medium will hereon be referred to as binding medium (BM). "Cold" unlabeled human TNF a (Esquire) is diluted in BM so to have concentrations of 1.6 x 10^-7M, 4 x 10-^8 M and 10^-8M. Suramin (Bayer, Leverkusen, FRG) is dissolved in BM so to have a concentration of 4 mM. Starting from this solution a series of dilutions are set up in BM.
K562 cells (human chronic myelogenous leukemia, ATCC CCL243) are adjusted to a concentration of 2 x 10^6/ml in BM. 100 µl of the cell suspension are then incubated with 50 µl of each iodinated TNFa concentration and with 50 µl BM or 50 µl of a 100 fold higher concentration of "cold" TNF a or 50 µl of each suramin dilution. The mixtures are incubated for 4 hours at […]. Thereafter the cells are centrifuged through a phthalate-dibutyl phthalate oil mixture (1:1,5 vol/vol, Fluka AG, Buchs, Switzerland). Cell-associated radioactivity is determined in a gamma-counter. Data thus obtained are processed by means of an equilibrium binding data analysis program (EBDA, Elsevir Science Publishers, Amsterdam, Netherlands). […]

Data set [3] has as its target T1, human TNFa. Briefly: Inhibition by suramin of the cytotoxic activity of TNFa on untreated mouse LM cells (MTT). Type of data set: cell-based. The note with it: measured after 2 days, Figure 6. The method, then:
The experiments depicted in Figure 6 were similar to the experiments of Figure 5, except that actinomycin D was omitted from the incubation mixture. In this case the cytotoxic activity of human TNFa was measured after 2 days. […] The degree of inhibition was dependent on the activity of human TNFa employed, i.e. doses of human TNFa exerting high cytotoxic activity were less inhibitable than those exerting lower cytotoxic activity.
3) Inhibition by suramin of the cytotoxic activity of TNF a on untreated mouse LM cells.
On day O logarithmically growing mouse LM cells (Rubin, B.Y. et al. J. Exp. Med. 162 : 1099 (1985)) are trypsinized, centrifuged and resuspended at a final concentration of 5 x 10^4 cells/ml of Eagle's minimun essential medium supplemented with 5% FCS and 1% glutamine (complete MEM). […]
The plates are further incubated for 4 hours at 37 °C. Then, supernatants are discarded, 200 µl of dimethylsulfoxide (DMSO, Farmitalia Carlo Erba) are added to each well and the extent of color development is read on a plate ELISA reader at 570 nm. OD values obtained for each TNF a concentration and each TNFa-suramin mixture are expressed as percent (%) of those obtained for the controll wells containing only complete MEM and complete MEM plus each suramin dilution, respectively.

Data set [4] concerns the target T1, human TNFa. Kind of data set: Inhibition by suramin of the binding of iodinated human TNFa to LM cells. Also on record: purchased New England Nuclear (NEN), Wilmington, DE. The note with it: binding of 3 x 10^-10M human TNFa to mouse LM cells; Figure 2.
Experimental: The mixtures were then added to mouse LM cells. The residual binding of TNFa was measured and compared to the binding to LM cells in the absence or presence of a 100-fold higher dose of "cold" unlabeled human TNFa. […] For the binding assay, 24-well plates (Costar, Vis- mara Associate, Trezzano sul Naviglio, Italy) are used, that have been seeded the day before with mouse LM cells (Rubin, B.Y. et al. J. Exp. Med. 162: 1099 (1985)), 200.000 cells/well. The medium is discarded and replaced with 100 µl BM supplemented with 0.04% Na N3, 50 µl iodinated human TNF a and 50 µl BM or 50 µl cold TNF a or 50 µl of each suramin dilution. After 4 hours at 4°C cells are washed 4 x with BM, solubilized with 2% SDS and cell-associated radioactivity is determined. Data are processed as described before.

T1 sequence (P01375 77-233 limits assumed): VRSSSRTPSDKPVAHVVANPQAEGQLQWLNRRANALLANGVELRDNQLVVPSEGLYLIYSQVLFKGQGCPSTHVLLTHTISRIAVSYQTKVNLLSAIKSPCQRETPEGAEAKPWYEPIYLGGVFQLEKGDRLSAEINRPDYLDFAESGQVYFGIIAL

`Cc1ccc(C(=O)Nc2ccc(S(=O)(=O)O)c3cc(S(=O)(=O)O)cc(S(=O)(=O)O)c23)cc1NC(=O)c1cccc(NC(=O)Nc2cccc(C(=O)Nc3cc(C(=O)Nc4ccc(S(=O)(=O)O)c5cc(S(=O)(=O)O)cc(S(=O)(=O)O)c45)ccc3C)c2)c1` [suramin, 8,8' - (carbonylbis(imino-3,1-phenylenecarbonylimino (4-methyl-3,1-phenylene)carbonylimino)) bis-1,3 ,5-naphthalenetrisulfonic acid]: the “inhibition of the cytotoxic activity of human TNFa” value on human TNFa [1] is on record as “inhibited, in a dose- dependent manner”; on human TNFa [3] it was “inhibited, in a dose- dependent manner”. Also, the IC50 is 78 µM at human TNFa [2] (binding of 2.5 x 10-"M human TNFa to human K562 cells), 180 µM on human TNFa [2] (binding of 4 x 10-'°M human TNFa to human K562 cells), 126 µM at human TNFa [2] (binding of 10^-10M human TNFa to human K562 cells) and 175 µM at human TNFa [4]. On human TNFa [2] (sequential addition of suramin and 10^-10M TNFa, K562 cells washed in between, Figure 4), the “inhibition of the binding of TNFa to K562” value was “no inhibition”.
